Reference: ChEMBL document CHEMBL3611970, “Synthesis and evaluation of isatin-β-thiosemicarbazones as novel agents against antibiotic-resistant Gram-positive bacterial species” (2015)
In brackets after ≈: the same amount, converted by molar mass.

Columns and labels:
Format in all cases: functional
Staphylococcus aureus [1] = experiment: Antimicrobial activity against methicillin-resistant Staphylococcus aureus 8-24 clinical isolate after 16 hrs by broth microdilution method; conditions: 8-24, 16 h
Klebsiella pneumoniae = experiment: Antimicrobial activity against Klebsiella pneumoniae KP-249 clinical isolate after 16 hrs by broth microdilution method; conditions: KP-249, 16 h
Staphylococcus aureus [2] = experiment: Antimicrobial activity against methicillin-resistant Staphylococcus aureus 6-42 clinical isolate after 16 hrs by broth microdilution method; conditions: 6-42, 16 h
Staphylococcus aureus [3] = experiment: Antimicrobial activity against Staphylococcus aureus ATCC 6538 after 16 hrs by broth microdilution method; conditions: ATCC 6538, 16 h
Staphylococcus aureus [4] = experiment: Antimicrobial activity against methicillin-resistant Staphylococcus aureus 309-6 clinical isolate after 16 hrs by broth microdilution method; conditions: 309-6, 16 h
Staphylococcus aureus [5] = experiment: Antimicrobial activity against methicillin-resistant Staphylococcus aureus Chaoyang clinical isolate after 16 hrs by broth microdilution method
Staphylococcus aureus [6] = experiment: Antimicrobial activity against methicillin-resistant Staphylococcus aureus 309-1 clinical isolate after 16 hrs by broth microdilution method; conditions: 309-1, 16 h
Staphylococcus aureus [7] = experiment: Antimicrobial activity against methicillin-resistant Staphylococcus aureus 309-7 clinical isolate after 16 hrs by broth microdilution method; conditions: 309-7, 16 h
Staphylococcus aureus [8] = experiment: Antimicrobial activity against methicillin-resistant Staphylococcus aureus 309-3 clinical isolate after 16 hrs by broth microdilution method; conditions: 309-3, 16 h
Bacillus spizizenii = experiment: Antimicrobial activity against Bacillus subtilis ATCC 6633 after 16 hrs by broth microdilution method; conditions: ATCC 6633, 16 h
Staphylococcus aureus [9] = experiment: Antimicrobial activity against methicillin-resistant Staphylococcus aureus 6281 clinical isolate after 16 hrs by broth microdilution method; conditions: Staphylococcus aureus, 6281, 16 h
Staphylococcus aureus [10] = experiment: Antimicrobial activity against methicillin-resistant Staphylococcus aureus 309-4 clinical isolate after 16 hrs by broth microdilution method; conditions: 309-4, 16 h
Pseudomonas aeruginosa = experiment: Antimicrobial activity against Pseudomonas aeruginosa PAO1 after 16 hrs by broth microdilution method; conditions: PAO1, 16 h
Staphylococcus aureus [11] = experiment: Antimicrobial activity against methicillin-resistant Staphylococcus aureus 8-21 clinical isolate after 16 hrs by broth microdilution method; conditions: 8-21, 16 h
Enterococcus faecalis [12] = experiment: Antimicrobial activity against Enterococcus faecalis VRE-309 after 16 hrs by broth microdilution method; conditions: VRE-309, 16 h
Staphylococcus aureus [13] = experiment: Antimicrobial activity against methicillin-resistant Staphylococcus aureus 309-8 clinical isolate after 16 hrs by broth microdilution method; conditions: 309-8, 16 h
Enterococcus faecalis [14] = experiment: Antimicrobial activity against vancomycin-susceptible Enterococcus faecalis after 16 hrs by broth microdilution method

SMILES	MIC (Staphylococcus aureus [1]) [µg/mL]	MIC (Klebsiella pneumoniae) [µg/mL]	MIC (Staphylococcus aureus [2]) [µg/mL]	MIC (Staphylococcus aureus [3]) [µg/mL]	MIC (Staphylococcus aureus [4]) [µg/mL]	MIC (Staphylococcus aureus [5]) [µg/mL]	MIC (Staphylococcus aureus [6]) [µg/mL]	MIC (Staphylococcus aureus [7]) [µg/mL]	MIC (Staphylococcus aureus [8]) [µg/mL]	MIC (Bacillus spizizenii) [µg/mL]	MIC (Staphylococcus aureus [9]) [µg/mL]	MIC (Staphylococcus aureus [10]) [µg/mL]	MIC (Pseudomonas aeruginosa) [µg/mL]	MIC (Staphylococcus aureus [11]) [µg/mL]	MIC (Enterococcus faecalis [12]) [µg/mL]	MIC (Staphylococcus aureus [13]) [µg/mL]	MIC (Enterococcus faecalis [14]) [µg/mL]
COc1cccc(NC(=S)N/N=C2\C(=O)Nc3c(Cl)cccc32)c1	1.56 (≈ 4.32 µM)	> 100	0.78 (≈ 2.16 µM)	3.12 (≈ 8.65 µM)	3.12 (≈ 8.65 µM)	0.78 (≈ 2.16 µM)	1.56 (≈ 4.32 µM)	0.78 (≈ 2.16 µM)	1.56 (≈ 4.32 µM)	≤ 0.78	6.25 (≈ 17.3 µM)	0.78 (≈ 2.16 µM)	> 100	1.56 (≈ 4.32 µM)	> 100	1.56 (≈ 4.32 µM)	> 100
O=C1Nc2c(I)cccc2/C1=N/NC(=S)Nc1ccc(F)cc1	1.56 (≈ 3.54 µM)	> 100	0.78 (≈ 1.77 µM)	1.56 (≈ 3.54 µM)	3.12 (≈ 7.09 µM)	0.78 (≈ 1.77 µM)	3.12 (≈ 7.09 µM)	0.78 (≈ 1.77 µM)	1.56 (≈ 3.54 µM)	≤ 0.78	3.12 (≈ 7.09 µM)	1.56 (≈ 3.54 µM)	> 100	1.56 (≈ 3.54 µM)	3.12 (≈ 7.09 µM)	1.56 (≈ 3.54 µM)	6.25 (≈ 14.2 µM)
COc1ccccc1NC(=S)N/N=C1\C(=O)Nc2c(Br)cccc21	> 100	> 100	> 100	> 100	> 100	25 (≈ 61.7 µM)	> 100	> 100	> 100	25 (≈ 61.7 µM)	> 100	> 100	> 100	> 100	> 100	> 100	> 100
Cc1ccccc1NC(=S)N/N=C1\C(=O)Nc2c(Cl)cccc21	1.56 (≈ 4.52 µM)	> 100	0.78 (≈ 2.26 µM)	1.56 (≈ 4.52 µM)	1.56 (≈ 4.52 µM)	0.78 (≈ 2.26 µM)	1.56 (≈ 4.52 µM)	0.78 (≈ 2.26 µM)	1.56 (≈ 4.52 µM)	≤ 0.78	1.56 (≈ 4.52 µM)	1.56 (≈ 4.52 µM)	> 100	0.78 (≈ 2.26 µM)	3.12 (≈ 9.05 µM)	1.56 (≈ 4.52 µM)	6.25 (≈ 18.1 µM)
Cc1cccc2c1NC(=O)/C2=N\NC(=S)Nc1ccc(F)cc1	1.56 (≈ 4.75 µM)	> 100	1.56 (≈ 4.75 µM)	1.56 (≈ 4.75 µM)	1.56 (≈ 4.75 µM)	0.78 (≈ 2.38 µM)	1.56 (≈ 4.75 µM)	0.78 (≈ 2.38 µM)	1.56 (≈ 4.75 µM)	≤ 0.78	3.12 (≈ 9.5 µM)	1.56 (≈ 4.75 µM)	> 100	1.56 (≈ 4.75 µM)	1.56 (≈ 4.75 µM)	1.56 (≈ 4.75 µM)	3.12 (≈ 9.5 µM)
Cc1cccc2c1NC(=O)/C2=N\NC(=S)Nc1ccc(Cl)cc1	1.56 (≈ 4.52 µM)	> 100	1.56 (≈ 4.52 µM)	1.56 (≈ 4.52 µM)	3.12 (≈ 9.05 µM)	0.78 (≈ 2.26 µM)	1.56 (≈ 4.52 µM)	1.56 (≈ 4.52 µM)	3.12 (≈ 9.05 µM)	1.56 (≈ 4.52 µM)	3.12 (≈ 9.05 µM)	1.56 (≈ 4.52 µM)	> 100	1.56 (≈ 4.52 µM)	1.56 (≈ 4.52 µM)	1.56 (≈ 4.52 µM)	3.12 (≈ 9.05 µM)
O=C1Nc2c(Br)cccc2/C1=N/NC(=S)Nc1cccc(Cl)c1	1.56 (≈ 3.81 µM)	> 100	0.78 (≈ 1.9 µM)	1.56 (≈ 3.81 µM)	1.56 (≈ 3.81 µM)	0.39 (≈ 0.952 µM)	1.56 (≈ 3.81 µM)	0.78 (≈ 1.9 µM)	1.56 (≈ 3.81 µM)	≤ 0.78	1.56 (≈ 3.81 µM)	0.78 (≈ 1.9 µM)	> 100	1.56 (≈ 3.81 µM)	1.56 (≈ 3.81 µM)	1.56 (≈ 3.81 µM)	3.12 (≈ 7.62 µM)
